The text below walks through data of patent US20250092065A1, “2-(INDAZOL-5-YL)-6-(PIPERIDIN-4-YL)-1,7-NAPHTHYRIDINE DERIVATIVES AND RELATED COMPOUNDS AS MODULATORS FOR SPLICING NUCLEIC ACIDS AND FOR THE TREATMENT OF PROLIFERATIVE DISEASES” (REMIX THERAPEUTICS INC., priority 2022, published 2025).

The test system of data set [1] is HTT. In words: HiBiT protein abundance assay, HTT (K562 HiBiT knock-in). As to conditions: HiBiT knock-in K562 cells, 24 hours, top dose 10 μM. The format is cell-based, human. In outline:
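K562 HiBiT knock-in, 24 h, 37 °C, top 10 μM final, 3-fold ×10, DMSO ≤0.25%. Lytic HiBiT luminescence; PC = parental K562, NC = DMSO; 4PL IC50.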
Background: HiBiT is a short tag that completes a luciferase, so light tracks the accessible tagged protein.

Data set [2] deals with K562 cells. In words: Cell Titer Glo 2.0 cell viability (toxicity) assay, K562. As to conditions: 500 cells/well, 72 hours. For orientation: ATP-based viability assays read luminescence as a measure of living cells.
Data set [3] has as its system Target C. Nature of the data set: RT-qPCR canonical junction panel assay, Target C mRNA. The class given is cell-based. The settings on record: Table 4, read-out: Target C IC50 (decrease in CJ mRNA levels). The gist of the method:
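A673 or K562 cells treated with compound; CJ mRNA quantified by junction-spanning RT-qPCR probe after cDNA synthesis, normalised to GAPDH, GUSB or PPIA and DMSO (2^−ΔΔCt), scaled to set ΔCt assay window; IC50 from 4-parameter fit of CJ decrease.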

In general, IC50 refers to the concentration needed to halve the response being measured. Take `Cn1cc2cc(-c3ccc4nc(N5CC[C@@H](NC6(CF)CC6)C5)ccc4n3)c(O)cc2n1` [Compound 354, 5-{6-[(3R)-3-{[1-(fluoromethyl)cyclopropyl]amino}pyrrolidin-1-yl]-1,5-naphthyridin-2-yl}-2-methylindazol-6-ol]: the 50% inhibitory concentration (IC50) in data set [1] and in data set [3] was below 100 nM in each case. For the same compound, in data set [2], the “Effect of Exemplary Compounds on Cell Viability, K562” value (“Effect of Exemplary Compounds” below) is recorded as “B (B represents 100-1000 nM)”.

Consider `Cn1cc2cc(-c3ccc4nc(N5CC[C@H](NC6(CF)CC6)C5)ccc4n3)c(O)cc2n1` [Compound 355, 5-{6-[(3S)-3-{[1-(fluoromethyl)cyclopropyl]amino}pyrrolidin-1-yl]-1,5-naphthyridin-2-yl}-2-methylindazol-6-ol], for which the IC50 in data set [1] was below 100 nM; in data set [3], 100 to 1000 nM. Moreover, the “Effect of Exemplary Compounds” value in data set [2] is given as “B (B represents 100-1000 nM)”.

Regarding `Cc1c(O)c(-c2ccc3nc(N4CCC(NC5(CF)CC5)C4)ccc3n2)cc2cn(C)nc12` (stereo not drawn) [Compound 360, 5-[6-(3-{[1-(fluoromethyl)cyclopropyl]amino}pyrrolidin-1-yl)-1,5-naphthyridin-2-yl]-2,7-dimethylindazol-6-ol], the 50% inhibitory concentration (IC50) in data set [1] and in data set [3] was below 100 nM throughout. For the same compound, the “Effect of Exemplary Compounds” value in data set [2] is recorded as “B (B represents 100-1000 nM)”.

Turning to `Cc1c(O)c(-c2cc(C(C)O)c3nc(N4CCNCC4)ccc3n2)cc2cn(C)nc12` (stereo not drawn) [Compound 364, 5-[4-(1-hydroxyethyl)-6-(piperazin-1-yl)-1,5-naphthyridin-2-yl]-2,7-dimethylindazol-6-ol], the 50% inhibitory concentration (IC50) in data set [1] and in data set [3] was above 10000 nM each time. In addition, the “Effect of Exemplary Compounds” value in data set [2] is “B (B represents 100-1000 nM)”.

Take `Cc1c(O)c(-c2ncc3nc(C4CCNCC4)ccc3n2)cc2cn(C)nc12` [Compound 370, 2,7-dimethyl-5-[6-(piperidin-4-yl)pyrido[3,2-d]pyrimidin-2-yl]indazol-6-ol]: the figures for the concentration for half-maximal inhibition (IC50) in data set [1] and in data set [3] were 100 to 1000 nM and 1000 to 10000 nM, respectively. Moreover, the “Effect of Exemplary Compounds” value in data set [2] is reported as “C (C represents 1000-9999 nM)”.

As to `Cc1nc2c(F)c(O)c(-c3ccc4nc(N5CC[C@H](N[C@H]6C[C@@H](F)C6)C5)ccc4n3)cc2o1` [Compound 374, 4-fluoro-2-methyl-6-[6-(3-{[(1r,3r)-3-fluorocyclobutyl]amino}pyrrolidin-1-yl)-1,5-naphthyridin-2-yl]-1,3-benzoxazol-5-ol], the IC50 in data set [1] and in data set [3] was below 100 nM throughout. The “Effect of Exemplary Compounds” value in data set [2] was “A (A represents <100 nM)”.

Take `CNC1CCN(c2ccc3nc(-c4cc(C#N)c5nc(C)cn5c4)ncc3n2)C1` (stereo not drawn) [Compound 382, 2-methyl-6-{6-[3-(methylamino)pyrrolidin-1-yl]pyrido[3,2-d]pyrimidin-2-yl}imidazo[1,2-a]pyridine-8-carbonitrile]: the half-inhibitory concentration (IC50) in data set [1] lay in the range of 100 to 1000 nM; in data set [3], 1000 to 10000 nM. Also, in data set [2], the “Effect of Exemplary Compounds” value is on record as “A (A represents <100 nM)”.

Consider `Cn1cc2cc(-c3ccc4nc(N5CC[C@H](NC6CC(F)(F)C6)C5)ccc4n3)c(O)cc2n1` [Compound 384], for which the IC50 in data set [1] is 1000 to 10000 nM; in data set [3], above 10000 nM. Further, the “Effect of Exemplary Compounds” value in data set [2] was “D (D represents greater than 10 μM in K562 cells)”.

With `Cn1cc2cc(-c3ccc4nc(N5CC[C@@H](NC6CC(F)(F)C6)C5)ccc4n3)c(O)cc2n1` [Compound 385], the half-maximal inhibitory concentration (IC50) was below 100 nM in data set [1] and 100 to 1000 nM in data set [3]. Also, the “Effect of Exemplary Compounds” value in data set [2] was “D (D represents greater than 10 μM in K562 cells)”.

As for `Cn1cc2cc(-c3ccc4nc(N5CCC(NCC6CC6)C5)ccc4n3)c(O)c(F)c2n1` (stereo not drawn) [Compound 387, 5-(6-{3-[(cyclopropylmethyl)amino]pyrrolidin-1-yl}-1,5-naphthyridin-2-yl)-7-fluoro-2-methylindazol-6-ol], the IC50 in data set [1] and in data set [3] was below 100 nM each time. Also, the “Effect of Exemplary Compounds” value in data set [2] is given as “A (A represents <100 nM)”.
